The NIST ThermoML archive (doi:10.1021/je300972a)

Experiment: xn = mol fraction of the nth substance listed
Settings: 101 kPa, Liquid; for viscosity: Falling or rolling sphere viscometry; for mass density: Vibrating tube method

CCCC[n+]1ccc(C)cc1.O=S(=O)([N-]S(=O)(=O)C(F)(F)F)C(F)(F)F + CCCC[n+]1ccccc1.F[B-](F)(F)F
Settings | mass density [kg/m3] | viscosity [mPa·s]
293.15 K, x2 = 0 | 1416.6 | 70.6
293.15 K, x2 = 0.0575 | 1409.3 | 75.3
293.15 K, x2 = 0.1136 | 1401.9 | 77.8
293.15 K, x2 = 0.2311 | 1385.1 | 88.7
293.15 K, x2 = 0.3515 | 1366 | 101.1
293.15 K, x2 = 0.4566 | 1347.8 | 115.1
293.15 K, x2 = 0.5692 | 1326.2 | 135.2
293.15 K, x2 = 0.673 | 1304 | 153.4
293.15 K, x2 = 0.7836 | 1277.5 | 171.9
293.15 K, x2 = 0.889 | 1249.1 | 195
293.15 K, x2 = 0.9535 | 1230.2 | 216.1
303.15 K, x2 = 0 | 1407.3 | 45.2
303.15 K, x2 = 0.0575 | 1400.1 | 47.3
303.15 K, x2 = 0.1136 | 1392.8 | 49.3
303.15 K, x2 = 0.2311 | 1376.2 | 55.5
303.15 K, x2 = 0.3515 | 1357.4 | 63.3
303.15 K, x2 = 0.4566 | 1339.4 | 72.7
303.15 K, x2 = 0.5692 | 1318.1 | 81.7
303.15 K, x2 = 0.673 | 1296.1 | 90.6
303.15 K, x2 = 0.7836 | 1270 | 98.9
303.15 K, x2 = 0.889 | 1241.9 | 109.6
303.15 K, x2 = 0.9535 | 1223.2 | 118.8
313.15 K, x2 = 0 | 1398.1 | 30.6
313.15 K, x2 = 0.0575 | 1391 | 31.9
313.15 K, x2 = 0.1136 | 1383.8 | 33
313.15 K, x2 = 0.2311 | 1367.4 | 37
313.15 K, x2 = 0.3515 | 1348.8 | 42.3
313.15 K, x2 = 0.4566 | 1331.1 | 47.2
313.15 K, x2 = 0.5692 | 1310 | 52.1
313.15 K, x2 = 0.673 | 1288.3 | 56.6
313.15 K, x2 = 0.7836 | 1262.5 | 61.3
313.15 K, x2 = 0.889 | 1234.7 | 66.9
313.15 K, x2 = 0.9535 | 1216.2 | 72.5
323.15 K, x2 = 0 | 1388.8 | 21.8
323.15 K, x2 = 0.0575 | 1381.9 | 22.6
323.15 K, x2 = 0.1136 | 1374.7 | 23.5
323.15 K, x2 = 0.2311 | 1358.6 | 26.4
323.15 K, x2 = 0.3515 | 1340.3 | 29.6
323.15 K, x2 = 0.4566 | 1322.8 | 32.4
323.15 K, x2 = 0.5692 | 1302 | 35.4
323.15 K, x2 = 0.673 | 1280.5 | 38.2
323.15 K, x2 = 0.7836 | 1255 | 41
323.15 K, x2 = 0.889 | 1227.6 | 44.1
323.15 K, x2 = 0.9535 | 1209.3 | 46.5
333.15 K, x2 = 0 | 1379.7 | 16.1
333.15 K, x2 = 0.0575 | 1372.8 | 16.8
333.15 K, x2 = 0.1136 | 1365.8 | 17.5
333.15 K, x2 = 0.2311 | 1349.8 | 19.5
333.15 K, x2 = 0.3515 | 1331.8 | 21.6
333.15 K, x2 = 0.4566 | 1314.5 | 23.3
333.15 K, x2 = 0.5692 | 1294 | 25.2
333.15 K, x2 = 0.673 | 1272.8 | 27
333.15 K, x2 = 0.7836 | 1247.6 | 28.9
333.15 K, x2 = 0.889 | 1220.5 | 30.8
333.15 K, x2 = 0.9535 | 1202.4 | 32.2
343.15 K, x2 = 0 | 1370.5 | 12.3
343.15 K, x2 = 0.0575 | 1363.8 | 12.8
343.15 K, x2 = 0.1136 | 1356.9 | 13.3
343.15 K, x2 = 0.2311 | 1341.1 | 14.6
343.15 K, x2 = 0.3515 | 1323.3 | 16
343.15 K, x2 = 0.4566 | 1306.3 | 17.2
343.15 K, x2 = 0.5692 | 1286 | 18.5
343.15 K, x2 = 0.673 | 1265.1 | 19.7
343.15 K, x2 = 0.7836 | 1240.2 | 20.9
343.15 K, x2 = 0.889 | 1213.4 | 22.1
343.15 K, x2 = 0.9535 | 1195.6 | 23
353.15 K, x2 = 0 | 1361.5 | 9.8
353.15 K, x2 = 0.0575 | 1354.9 | 10.1
353.15 K, x2 = 0.1136 | 1348 | 10.5
353.15 K, x2 = 0.2311 | 1332.5 | 11.4
353.15 K, x2 = 0.3515 | 1314.9 | 12.4
353.15 K, x2 = 0.4566 | 1298.1 | 13.3
353.15 K, x2 = 0.5692 | 1278.1 | 14.1
353.15 K, x2 = 0.673 | 1257.5 | 14.9
353.15 K, x2 = 0.7836 | 1232.8 | 15.8
353.15 K, x2 = 0.889 | 1206.3 | 16.6
353.15 K, x2 = 0.9535 | 1188.8 | 17.2
